These results are taken from EP0300073A1 (priority 1987, dated 1989).

One test has as its system rhinovirus. The following applies: cited from earlier work.
A further test has as its system fungi. The settings on record: cited from earlier work.
Another test relates to RF. As to the kind of experiment: in vitro test for anti-HIV activity: prevention of infection of a CD4 positive cell line. The class given is cell-based. The following applies: Human immunodeficiency virus 1, isolate RF, read-out: concentration required to prevent infection of the CD4 positive cell line. The source says:
(§1) In the in vitro test for anti-HIV activity, a CD4 positive cell line was used.

The subject of test [1] is HIV prototype isolate CBL-1. Described as above. The following applies: Human immunodeficiency virus 1, read-out: concentration able to inhibit the HIV prototype isolate CBL-1 from infecting the CD4 positive cell line. The class given is cell-based.
Description: as §1

The test system of another test is Coxsackie virus A21. The settings on record: cited from earlier work.
In the next test the test system is gram negative bacilli. The settings on record: cited from earlier work.
A further test concerns AIDS. The test can be described thus: clinical use in AIDS patients (case history, fusidic acid added to the therapeutic regimen). The class given is in vivo, human. The method, then:
Since it is known that fusidic acid can penetrate phagocytic cells and kill intracellular bacteria, fusidic acid was administered to AIDS patients with opportunistic infections in the hope that it might assist other antibiotics in combatting these infections. […] The present invention is based on this unexpected finding.
The patient, a person with a past history of hepatitis (HBsAG positive) and recurrent seborrhoic dermatitis was well until 1984 when they consulted a physician since they were suffering from lethargy, fever and weight loss. […] They remained stable with no further deterioration until 1986 when they suffered further weight loss and diarrhoea. […] Mycobacterium hominis was grown from both the stool and the blood following the detection of acid fast bacilli in a lymph node biopsy. The patient was given isoniazid, ethambutol and rifampicin as well as antiparasitic and local antifungal therapy. After six weeks of treatment there was no improvement with respect to their symptoms and they continued to lose weight (16 kg since admission). […] (orally) was added to their regimen. Two weeks following commencement they became afebrile, began to put on weight and was able to undergo a transurethral prostectomy, following which they returned to work and has been well since. Two months later they had increased their weight by 10 kg.

In the case of `CC(=O)O[C@H]1C[C@@]2(C)[C@@H](C[C@@H](O)[C@H]3[C@@]4(C)CC[C@@H](O)[C@@H](C)[C@@H]4CC[C@@]32C)/C1=C(\CCC=C(C)C)C(=O)O` [fusidic acid], the “in vitro antiviral effect against rhinovirus” value in the test on rhinovirus is “some in vitro antiviral effect”. For the same molecule, the activity against fungi entry in the test with fungi was “weak activity”. Moreover, the minimal effective concentration in the test on RF stood at 100 µg/mL; in test [1] it was 50 µg/mL. In the test on Coxsackie virus A21, the “in vitro antiviral effect against Coxsackie virus A21” value is “some in vitro antiviral effect”. In addition, the “activity against gram negative bacilli” value in the test on gram negative bacilli is “weak activity”. For the same molecule, the “general condition of AIDS patients” value in the test with AIDS (AIDS patients with opportunistic infections, added to the therapeutic regimen) is recorded as “remarkable improvement”. Also, the fever status result in the test on AIDS (one AIDS patient, 500 mg t.d.s. orally added to isoniazid, ethambutol, rifampicin, antiparasitic and antifungal therapy, two weeks following commencement) is on record as “afebrile”. This molecule also registered a weight increase in the test on AIDS (one AIDS patient, 500 mg t.d.s. orally added to regimen, two months later) of 10 kg.
